Converted amounts (≈) assume the structure as drawn.
Experiments:
Typhlodromus pyri = test: LR50; higher = less toxic; conditions: chronic/long-term; duration: 7 days; mortality
Aphidius rhopalosiphi = test: LR50; higher = less toxic; conditions: chronic/long-term; duration: 7 days; mortality
Pimephales promelas = conditions: chronic/long-term; duration: 40 days; time to hatch
Daphnia magna = conditions: chronic/long-term; duration: 21 days; reproduction
Oncorhynchus mykiss = conditions: acute; duration: 96 hours; mortality
Colinus virginianus = conditions: acute, oral, mortality
Apis mellifera = conditions: acute, duration: 48 hours, mortality
Canidae = conditions: oral, Dog Other, organ weight
Rattus norvegicus = conditions: acute; oral; mortality
Bibionidae = conditions: chronic/long-term; duration: 28 days
Tagia sp. = conditions: acute; duration: 14 days; mortality

In the case of `COc1cc(OC)n2nc(NS(=O)(=O)c3c(C(F)(F)F)ccnc3OC)nc2n1` [Pyroxsulam], the LR50 (Typhlodromus pyri) was > 37.5 g/ha, the LR50 (Aphidius rhopalosiphi) was > 37.5 g/ha and the LD50 (Anas platyrhynchos; acute, oral, unspecified, mortality) was > 2000 mg/kg-day. The NOAEL (Anas platyrhynchos; reproductive) was 46.3 mg/kg-day, the NOEC (Pimephales promelas) was 10.1 mg/L and the NOEC (Daphnia magna) was 10.4 mg/L. The LC50 (Oncorhynchus mykiss) was 5.9 mg/L (≈ 13.6 µM), the LC50 (Colinus virginianus; diet) was > 988 mg/kg-day and the LD50 (Colinus virginianus) was > 2000 mg/kg-day. The LD50 (Apis mellifera; dermal) was > 100 µg/piece, the LD50 (Apis mellifera; oral, unspecified) was > 107 µg/piece and the NOAEL (Canidae; chronic, duration: 1 years) was 89 mg/kg-day. The NOAEL (Canidae; subchronic, duration: 90 days) was 100 mg/kg-day, the LD50 (Rattus norvegicus) was > 2000 mg/kg-day and the NOEC (Bibionidae) was 100 mg/L. The LC50 (Tagia sp.) was > 10000 mg/kg.

Source: EPA's ToxValDB 9.5 (doi:10.2903/j.efsa.2013.3182)
